From ChEMBL document CHEMBL5728173, “N4-hydroxycytidine and derivatives and anti-viral uses related thereto” (2020) come the findings set out here.

Molecules are shown by their SMILES.

By EC50 is commonly meant the concentration needed to bring the measured effect to its halfway point.

The nature of the first test: antiviral activity: Several derivatives of EIDD-01931 have shown antiviral activity in screening against various viruses. Activity data is shown in the tables below. Norovirus SARS Coronavirus GT1 Orbani HG23 Vero 76.
Take `CC1(O)[C@@H](O)[C@@H](CO)O[C@H]1n1ccc(NO)nc1=O` (stereo partly drawn): the EC50 is more than 366 µM. As to `O=c1nc(NO)ccn1[C@@H]1O[C@H](CO)[C@H](O)C1O` (stereo partly drawn), the EC50 was more than 3860 µM.

The next test can be described thus: CPE Assay: Primary cytopathic effect (CPE) reduction assay. Four-concentration CPE inhibition assays are performed. Confluent or near-confluent cell culture monolayers in 96-well disposable microplates are prepared. (In general: Cytopathic effects are the visible damage that an infection or toxin causes in cultured cells.)
Regarding `C#CC1(O)[C@@H](O)[C@@H](COP(=O)(OCOC(=O)C(C)(C)C)OCOC(=O)C(C)(C)C)O[C@H]1n1ccc(=O)[nH]c1=O` (stereo partly drawn), the concentration giving a half-maximal response (EC50) came out at 64.4 µM.

The compound `CCCCCCCNC(=O)OC[C@H]1O[C@@H](n2ccc(NO)nc2=O)C(O)[C@H]1O` (stereo partly drawn) displayed a concentration for a half-maximal effect (EC50) of more than 78 µM. For the compound `CCCCCCCCCCCCCCCCOCCCOP(=O)(O)OC[C@H]1O[C@@H](n2ccc(NO)nc2=O)C(O)[C@H]1O` (stereo partly drawn), the 50% effective concentration (EC50) stood at 34.5 µM. `CC(C)(C)C(=O)OCOP(=O)(OCOC(=O)C(C)(C)C)OC[C@H]1O[C@@H](n2ccc(=O)[nH]c2=O)C(C)(F)[C@H]1O` (stereo partly drawn) came in with a 50% effective concentration (EC50) of 58 µM. In the case of `O=c1nc(NO)ccn1[C@@H]1O[C@H](CO)[C@H](O)C1F` (stereo partly drawn), the EC50 was more than 75 µM. With `CCCCCCCCC(=O)OC[C@H]1O[C@@H](n2ccc(NO)nc2=O)C(O)[C@H]1O` (stereo partly drawn), a half-maximal effect (EC50) was put at 0.3 µM. That is a sub-micromolar value. `O=c1nc(NO)ccn1[C@@H]1O[C@H](COP2(=O)OCc3ccccc3O2)[C@H](O)C1O` (stereo partly drawn) yielded a half-maximal effective concentration (EC50) of 10.8 µM. In turn, `NNc1ccn([C@@H]2O[C@H](CO)[C@H](O)C2O)c(=O)n1` (stereo partly drawn) showed an EC50 of more than 78 µM. With `CC1(F)[C@@H](O)[C@@H](CO)O[C@H]1n1ccc(NO)nc1=O` (stereo partly drawn), the EC50 is more than 75 µM. `CCCCCCCNC(=O)ONc1ccn([C@@H]2O[C@H](CO)[C@H](O)C2O)c(=O)n1` (stereo partly drawn) returned an EC50 of 29 µM. That is a double-digit micromolar value. Still for that read-out and setting: under `O=c1ccn([C@@H]2O[C@H](CO)[C@H](O)C23CC3(F)F)c(=O)[nH]1` (stereo partly drawn) stands more than 78 µM. Turning to `CNC(=O)ONc1ccn([C@@H]2O[C@H](CO)[C@H](O)C2O)c(=O)n1` (stereo partly drawn), a half-maximal effect (EC50) was put at 32 µM. That is a double-digit micromolar value.

Take `CC(C)(C)C(=O)OCOP(=O)(OCOC(=O)C(C)(C)C)OC[C@@]1(N=[N+]=[N-])O[C@@H](n2ccc(=O)[nH]c2=O)C(O)[C@H]1O` (stereo partly drawn): a half-maximal effect (EC50) was put at 56 µM. `CC1(O)[C@H]2OP(=O)(Oc3ccccc3)OC[C@H]2O[C@H]1n1ccc(=O)[nH]c1=O` (stereo partly drawn) yielded a half-maximal effective concentration (EC50) of more than 78 µM. Same read-out and setting: the value for `CC1(O)[C@@H](O)[C@@H](CO)O[C@H]1n1ccc(NO)nc1=O` (stereo partly drawn) was 72 µM.

Turning to `CCCCCCCNC(=O)ONc1ccn([C@H]2O[C@H](CO)[C@H](O)C2O)c(=O)n1` (stereo partly drawn), the concentration giving a half-maximal response (EC50) stood at 38 µM. In turn, `CN(C)C(=O)ONc1ccn([C@@H]2O[C@H](CO)[C@H](O)C2O)c(=O)n1` (stereo partly drawn) yielded a concentration giving a half-maximal response (EC50) of 25 µM. In turn, `CCCCCCCCCCCCCCCCNC(=O)ONc1ccn([C@@H]2O[C@H](CO)[C@H](O)C2O)c(=O)n1` (stereo partly drawn) gave an EC50 of more than 78 µM.

Take `CCOP(=O)(OCC)OC[C@H]1O[C@@H](n2ccc(NO)nc2=O)C(O)[C@H]1O` (stereo partly drawn): the 50% effective concentration (EC50) is more than 78 µM. As for `CONc1ccn([C@@H]2O[C@H](CO)[C@H](O)C2(C)O)c(=O)n1` (stereo partly drawn), the concentration for a half-maximal effect (EC50) is more than 75 µM. As to `O=c1nc(NO)cc[nH]1` [N4-hydroxycytosine], the EC50 is more than 78 µM.
